Experimental data reported in patent EP0193637A1, “Use for the improvement or treatment of various diseases associated with cerebrovascular damages” (Yoshitomi Pharmaceutical Industries, Ltd., priority 1985, dated 1986).
Structures can show the parent of a compound that is named as a salt. Marks after values point to notes of the source that are not given here.

Key:
[1] = test system: cerebral energy state in KCN-induced anoxia mice; test: Cerebral energy state in KCN-induced anoxia mice; format: in vivo; conditions: brain, p<0.01 vs. control; for ADP / AMP / ATP / Glucose / Lactate / P-creatine: Compound A i.p.; for ECP (Energy charge potential): ECP = ATP + 0.5xADP / ATP + ADP + AMP
Protocol: Male ddY-mice weighing 22-26 g were used. Compound A was dissolved in 0.5 % methylcellulose solution and injected intraperitoneally. After administration, 2.5 mg/kg of KCN in saline was injected intravenously. The animals were frozen in liquid nitrogen at 30 or 120 seconds laterm After removing and weighing, the frozen cerebrums were powdered.
According to the procedure by Lowry, O. H. et al described in "A flexible system of enzymatic analysis" (Academic press 1978) or by Yasuda et al described in Arch. Int. Pharmacodyn., vol. 242, p. 77-85 (1979), contents of Phosphocreatine (P-creatine), ATP, ADP, AMP, glucose and lactate in brain were determined. Concentrations (µ moles/g of brain) were calculated. Student's t-test was used in the statical analysis of the results.

[2] = Acute toxicity in rats; conditions: rat, in vivo, po, one week-observation
Protocol: (§1) Compound A was orally administered to male Wistar-rats weighing about 200 g and male ddY-mice weighing 20-25 g. After one week-observation, the LD50 value (mg/kg) was measured.

[3] = test system: 2-deoxy-D-glucose uptake into rat brain; test: Chronic administration, 2-deoxy-D-glucose uptake into rat brain; format: in vivo; conditions: 10 mg/kg i.p. once daily for 14 days; for dpm/mg tissue dpm/µl serum: 3H-2-deoxy-D-glucose 27 hours after last administration, mean ± standard error, p<0.05 vs. control; for dpm/mg tissue dpm/µl serum (Δ%): change vs. control
Protocol: 2-deoxy-D-glucose uptake into rat brain Compound A was administered intraperitoneally to male Wistar-rat once daily for 14 days. ^3H-2-deoxy-D-glucose (40 µCi/kg, i.p.) was injected to rats 27 hours after the last administration of Compound A. Fifteen minuts after the injection of 3H-2-deoxy-D-glucose, the animals were decapitated and blood from trunk was collected simultaneously. The brains were dissected into five regions. Radioactivity in the brain sample and serum was counted using Soluene-350 and toluene scintillator. […] Each value represents the mean ± standard error.

[4] = test system: KCN-induced mortality; test: KCN-induced mortality; format: in vivo, mice; conditions: 30 mg/kg i.p. 30 minutes before KCN 2.5 mg/kg i.v.
[5] = test system: normabaric hypoxia; test: Normobaric hypoxia, time to respiratory failure; format: in vivo, mice; conditions: 30 mg/kg i.p., nitrogen and oxygen (96:4), mean ± standard error, p<0.01 vs. control
Protocol: The experiment was performed according to the method by Yasuda et al described in Arch. Int. Pharmacolodyn., vol. 233, p. 136-144 (1978).
Three male ddY-mice were introduced into a 300 ml glass container in which circulated a current of a gas mixture of nitrogen and oxygen (96:4) at the rate of about 51/minutes. The time to respiratory failure was recorded.

[6] = test system: ECS; test: Electroconvulsive shock (ECS) induced amnesia, one trial step-through passive avoidance response; format: in vivo, mice; conditions: ECS-induced amnesia (30 mA, 0.5 seconds); 5 mg/kg i.p. immediately after ECS; test 24 hours after training; mean ± standard error; p<0.05 vs. ECS-vehicle control
Excerpt: (§2) Male ddY-mice, weighing 19-25 g were used. The test apparatus consisted of a two-compartment avoidance box with a large 10x23x20 cm compartment illuminated by a 40W bulb, and a. small 14x14x20 cm shock compartment, painted black, with a floor made of metal rods 6 mm apart through which a foot shock (FS, 0.25 mA, 2 seconds) could be delivered. The two compartments were separated by a guillotine door.
(§3) The training procedure consisted of placing the mouse in the center of the large compartment. Within 20 to 50 seconds the animal entered the small compartment and was immediately given FS, and removed from the compartment. The animals were exposed to C02 for 8 seconds or given an electroconvulsive shock (ECS, 30 mA, 0.5 seconds) immediately after FS, or were injected with an amnestic agent scopolamine (SCO, 3 mg/kg i.p.) 20 minutes before FS.
(§4) The testing procedure consisted of placing the animal in the large compartment as above and noting the latency to enter the dark compartment up to 600 seconds. The training-to-test interval was 24 hours. Compound A or vehicle (0.5 % methylcellulose) was injected intraperitoneally immediately after exposure to C02 or ECS. For the scopolamine induced amnesia model, they were injected intraperitoneally immediately after FS. Thirty mice were used per test group.

[7] = test system: CO2-induced amnesia; test: CO2-induced amnesia, one trial step-through passive avoidance response; format: in vivo, mice; conditions: 5 mg/kg i.p. immediately after CO2, test 24 hours after training, up to 600 seconds, mean ± standard error, p<0.01 vs. CO2-vehicle control
Excerpt: as §2, §3, §4

[8] = test system: scopolamine induced amnesia; test: Scopolamine induced amnesia, one trial step-through passive avoidance response; format: in vivo, mice; conditions: scopolamine (3 mg/kg i.p.) induced amnesia; 5 mg/kg i.p. immediately after foot shock; test 24 hours after training; mean ± standard error; p<0.05 vs. SCO-vehicle control
Excerpt: as §2, §3, §4

[9] = test system: KCN-induced coma; test: KCN-induced coma, recovery of righting reflex; format: in vivo, mice; conditions: values are log t, 10 mg/kg i.p. 30 minutes prior to KCN 1.8 mg/kg i.v., p<0.01 vs. control
Protocol: Male dd-mice were intraperitoneally injected with Compound A 30 minutes prior to the intravenous injection of 1.8 mg/kg of KCN-saline solution. The time to recovery of righting reflex, coma time, was determined.

[10] = Acute toxicity in mice; conditions: mouse, in vivo, po, one week-observation
Protocol: as §1

[11] = 30 sec. after KCN 2.5mg/kg i.v.
[12] = 120 sec. after KCN 2.5mg/kg i.v.

c1csc(Cc2ccccc2OCC2CNCCO2)c1 (stereo not drawn) [Compound A, 2-(2-(2-thienylmethyl)phenoxymetyl)morpholine maleate]
ADP [1, 11]: 0.599 ± 0.020 µmol/g of wet tissue | AMP [1, 11]: 0.107 ± 0.009 µmol/g of wet tissue | ATP [1, 11]: 2.62 ± 0.07 µmol/g of wet tissue | Glucose [1, 11]: 1.25 ± 0.11 µmol/g of wet tissue | Lactate [1, 11]: 4.92 ± 0.17 µmol/g of wet tissue | P-creatine [1, 11]: 2.52 ± 0.13 µmol/g of wet tissue | ECP (Energy charge potential) [1, 11]: 0.880 ± 0.004 | ADP [1, 12]: 0.509 ± 0.023 µmol/g of wet tissue | AMP [1, 12]: 0.044 ± 0.005 µmol/g of wet tissue | ATP [1, 12]: 2.60 ± 0.02 µmol/g of wet tissue | Glucose [1, 12]: 0.64 ± 0.04 µmol/g of wet tissue | Lactate [1, 12]: 7.42 ± 0.42 µmol/g of wet tissue | P-creatine [1, 12]: 2.40 ± 0.09 µmol/g of wet tissue | ECP (Energy charge potential) [1, 12]: 0.905 ± 0.004 | LD50 at 168 h [2]: 1710 mg/kg | dpm/mg tissue dpm/µl serum ([3]; Hippocampus): 0.90 ± 0.07 | dpm/mg tissue dpm/µl serum (Δ%) ([3]; Hippocampus): +20% | dpm/mg tissue dpm/µl serum ([3]; Parietal cortex): 1.27 ± 0.11 | dpm/mg tissue dpm/µl serum (Δ%) ([3]; Parietal cortex): +21% | Lethality [4]: 0 | Survival animals/ animals used ([4]; p<0.01 vs. control): 10/10** | Survival time [5]: 3.87 ± 0.32 min | Latency [6]: 357.5 ± 46.5 s | Latency [7]: 324.5 ± 37.1 s | Latency [8]: 169.6 ± 26.7 s | Coma time (sec.) (log t ± S.E.) [9]: 1.95 ± 0.039 sec. | LD50 at 168 h [10]: 716 mg/kg
